Assay [1] addresses T1, CaFLS (Camellia sinensis, UniProt A0A3G1RNB1).
T1 construct: gene FLS; synthetic gene in pET-28a(+) (NcoI/XhoI), expressed in E. coli BL21(DE3); 331 residues; mutants carry fragments of AnFNS I
The assay is described as follows: UPLC-MS product formation, Lineweaver-Burk. In kind it is biochemical. Particulars: tamarixetin formation (main product); Tris-HCl pH 7.5, 23 °C. The source says: (§1) UPLC-MS product formation, Lineweaver-Burk on CaFLS

In assay [2] the target is T1, CaFLS. The assay is described as follows: UPLC-MS product formation, Lineweaver-Burk. In kind it is biochemical. The conditions noted are these: Tris-HCl pH 7.5, 23 °C.
From the text: as §1

The record followed here is paper PMC9213739, “Substrates and Loaded Iron Ions Relative Position Influence the Catalytic Characteristics of the Metalloenzymes Angelica archangelica Flavone Synthase I and Camellia sinensis Flavonol Synthase” (Frontiers in Pharmacology, 2022).

For orientation: Km means the concentration of substrate that gives half-maximal velocity.

T1 sequence (A0A3G1RNB1 entry or part of it): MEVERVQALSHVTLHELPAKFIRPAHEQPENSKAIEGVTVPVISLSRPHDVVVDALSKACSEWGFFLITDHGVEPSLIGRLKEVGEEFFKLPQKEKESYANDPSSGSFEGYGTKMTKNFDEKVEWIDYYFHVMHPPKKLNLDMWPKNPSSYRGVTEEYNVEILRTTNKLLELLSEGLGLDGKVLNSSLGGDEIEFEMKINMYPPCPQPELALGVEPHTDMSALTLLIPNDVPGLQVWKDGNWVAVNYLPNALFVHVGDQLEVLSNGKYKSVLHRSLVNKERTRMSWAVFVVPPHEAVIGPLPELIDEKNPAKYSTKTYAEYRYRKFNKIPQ

As to `COc1ccc([C@@H]2CC(=O)c3c(O)cc(O)cc3O2)cc1O` [hesperetin], the Michaelis constant (Km) was found to be 68.5 µM in assay [1], 65.4 µM in assay [2] (diosmetin formation (main product)) and 66.4 µM in assay [2] (tamarixetin formation (main product)).
